Laboratory results reported in patent US9260416B2, “Heterocyclic autotaxin inhibitors and uses thereof” (AMIRA PHARMACEUTICALS, INC., priority 2011, dated 2016).

What follows are molecules tested against T1, autotaxin (Homo sapiens, UniProt Q13822) (assay: Human Serum Autotaxin Assay (choline release from LPC, TOOS detection)). Conditions: dialyzed human serum; substrate LPC 14:0, 300 μM; 4 hours at 37° C.; choline release read at 555 nm.
T1 construct: tissue Biocell Laboratories Inc 1121-00; host or cells: human serum (delipidated, dialyzed)
Format: biochemical
Description: Human Serum Autotaxin Assay
Inhibition of autotaxin activity is assayed in human serum by measuring the amount of choline released from the substrate, lysophosphatidylcholine (LPC). […] To assay for autotaxin inhibition, 20 μl of the dialyzed human serum is incubated with 2 μl test compound in DMSO and 73 μl lyso-PLD buffer (100 mM Tris pH 9, 500 mM NaCl, 5 mM MgCl2, 30 μM CoCl2, 0.05% Triton X-100) for 15 minutes at 37° C. […] 100 μl of a color mix which contains 4.5 mM 4-aminoantipyrine, 2.7 mM N-ethyl-N-(2-hydroxy-3-sulfopropyl)-m-toluidine, 21 units/ml Horseradish peroxidase and 3 units/ml choline oxidase in 50 mM Tris, pH 8, 4.5 mM MgCl2 is added and the incubation continued for 15 minutes at room temperature before reading the absorbance at 555 nm. The concentration of released choline in the sample is determined from a choline standard curve and is equal to the concentration of LPA produced.

First: Cc1[nH]c2cc(Cl)ccc2c1Sc1cncc(C(=O)O)c1 [Compound 1-1, 5-(6-Chloro-2-methyl-1H-indol-3-ylsulfanyl)-nicotinic acid]
Second: Cc1c(Sc2cncc(C(=O)O)c2)c2ccc(Cl)cc2n1-c1cnn(C)c1 [Compound 1-3, 5-[6-Chloro-2-methyl-1-(1-methyl-1H-pyrazol-4-yl)-1H-indol-3-ylsulfanyl]-nicotinic acid]
The IC50 of the first is higher: over 1000 nM for the first, under 300 nM for the second. The second is the more potent here.

Compared with `Cc1c(Sc2cncc(C(=O)O)c2)c2ccc(Cl)cc2n1Cc1ccccc1` [Compound 1-2, 5-(1-Benzyl-6-chloro-2-methyl-1H-indol-3-ylsulfanyl)-nicotinic acid], `CCn1cc(-n2c(C)c(Sc3cncc(C(=O)O)c3)c3ccc(Cl)cc32)cn1` [Compound 1-4, 5-[6-Chloro-1-(1-ethyl-1H-pyrazol-4-yl)-2-methyl-1H-indol-3-ylsulfanyl]-nicotinic acid] is lower in IC50: over 1000 nM for the first, under 300 nM for the second.

First: Cc1c(Sc2cncc(C(=O)O)c2)c2ccc(Cl)cc2n1-c1cnn(C(C)C)c1 [Compound 1-5, 5-[6-Chloro-1-(1-isopropyl-1H-pyrazol-4-yl)-2-methyl-1H-indol-3-ylsulfanyl]-nicotinic acid]
Second: Cc1c(Sc2cc(C(=O)O)ccn2)c2ccc(Cl)cc2n1-c1cnn(C(C)C)c1 [Compound 1-8, 2-[6-Chloro-1-(1-isopropyl-1H-pyrazol-4-yl)-2-methyl-1H-indol-3-ylsulfanyl]-isonicotinic acid]
The IC50 of the first is lower: under 300 nM for the first, 300 to 1000 nM for the second.

First: Cc1c(Sc2cc(C(=O)O)ccn2)c2ccc(Cl)cc2n1-c1cnn(C)c1 [Compound 1-6, 2-[6-Chloro-2-methyl-1-(1-methyl-1H-pyrazol-4-yl)-1H-indol-3-ylsulfanyl]-isonicotinic acid]
Second: CCn1cc(-n2c(C)c(Sc3cc(C(=O)O)ccn3)c3ccc(Cl)cc32)cn1 [Compound 1-7, 2-[6-Chloro-1-(1-ethyl-1H-pyrazol-4-yl)-2-methyl-1H-indol-3-ylsulfanyl]-isonicotinic acid]
The IC50 of the first is higher: over 1000 nM for the first, under 300 nM for the second. The second is the more potent here.

`CCn1cc(-n2c(C)c(Sc3cccc(C(=O)O)n3)c3ccc(Cl)cc32)cn1` [Compound 1-9, 6-[6-Chloro-1-(1-ethyl-1H-pyrazol-4-yl)-2-methyl-1H-indol-3-ylsulfanyl]-pyridine-2-carboxylic acid] and `CCCn1cc(-n2c(C)c(Sc3cccc(C(=O)O)n3)c3ccc(Cl)cc32)cn1` [Compound 1-11, 6-[6-Chloro-2-methyl-1-(1-propyl-1H-pyrazol-4-yl)-1H-indol-3-ylsulfanyl]-pyridine-2-carboxylic acid] cannot be ordered by IC50: under 300 nM for the first, under 300 nM for the second.

`Cc1c(Sc2cccc(C(=O)O)n2)c2ccc(Cl)cc2n1-c1cnn(C)c1` [Compound 1-10, 6-[6-Chloro-2-methyl-1-(1-methyl-1H-pyrazol-4-yl)-1H-indol-3-ylsulfanyl]-pyridine-2-carboxylic acid] and `Cc1c(Sc2cccc(C(=O)O)n2)c2ccc(Cl)cc2n1-c1cnn(C(C)C)c1` [Compound 1-14, 6-[6-Chloro-1-(1-isopropyl-1H-pyrazol-4-yl)-2-methyl-1H-indol-3-ylsulfanyl]-pyridine-2-carboxylic acid] cannot be ordered by IC50: under 300 nM for the first, under 300 nM for the second.

`CCn1cc(-n2c(C)c(Sc3cccc(C(=O)O)n3)c3ccc(Cl)c(F)c32)cn1` [Compound 1-12, 6-[6-Chloro-1-(1-ethyl-1H-pyrazol-4-yl)-7-fluoro-2-methyl-1H-indol-3-ylsulfanyl]-pyridine-2-carboxylic acid] and `CCCn1cc(-n2c(C)c(Sc3cccc(C(=O)O)n3)c3ccc(Cl)c(F)c32)cn1` [Compound 1-15, 6-[6-Chloro-7-fluoro-2-methyl-1-(1-propyl-1H-pyrazol-4-yl)-1H-indol-3-ylsulfanyl]-pyridine-2-carboxylic acid] cannot be ordered by IC50: under 300 nM for the first, under 300 nM for the second.

`Cc1c(Sc2cccc(C(=O)O)n2)c2ccc(Cl)c(F)c2n1-c1cnn(C(C)C)c1` [Compound 1-13, 6-[6-Chloro-7-fluoro-1-(1-isopropyl-1H-pyrazol-4-yl)-2-methyl-1H-indol-3-ylsulfanyl]-pyridine-2-carboxylic acid] and `CCn1cc(-n2c(C)c(Sc3cccc(CC(=O)O)n3)c3ccc(Cl)c(F)c32)cn1` [Compound 1-17, {6-[6-Chloro-1-(1-ethyl-1H-pyrazol-4-yl)-7-fluoro-2-methyl-1H-indol-3-ylsulfanyl]-pyridin-2-yl}-acetic acid] cannot be ordered by IC50: under 300 nM for the first, under 300 nM for the second.

`CCn1cc(-n2c(C)c(Sc3cnn(CC(=O)O)c3)c3ccc(Cl)c(F)c32)cn1` [Compound 1-16, {4-[6-Chloro-1-(1-ethyl-1H-pyrazol-4-yl)-7-fluoro-2-methyl-1H-indol-3-ylsulfanyl]-pyrazol-1-yl}-acetic acid] and `CCCn1cc(-n2c(C)c(Sc3cccc(CC(=O)O)n3)c3ccc(Cl)c(F)c32)cn1` [Compound 1-18, {6-[6-Chloro-7-fluoro-2-methyl-1-(1-propyl-1H-pyrazol-4-yl)-1H-indol-3-ylsulfanyl]-pyridin-2-yl}-acetic acid] cannot be ordered by IC50: under 300 nM for the first, under 300 nM for the second.
